Test results as given in ChEMBL document CHEMBL1135576, “Synthesis and biological characterization of L-N(6)-(1-iminoethyl)lysine 5-tetrazole-amide, a prodrug of a selective iNOS inhibitor” (J Med Chem, 2002).

What was measured:
Nitric oxide synthase 1 = Nitric oxide synthase 1 (Homo sapiens, UniProt P29475); experiment: The concentration required for inhibition of Human Neuronal nitric oxide synthase (nNOS)
[1] = target: T1, Nitric oxide synthase, inducible (Homo sapiens, UniProt P35228); experiment: The concentration required for inhibition of Human inducible nitric oxide synthase (iNOS) isoform, expressed as IC50.
[2] = target: T1, Nitric oxide synthase, inducible; experiment: The concentration required for inhibition of Human inducible nitric oxide synthase (iNOS) isoform

T1 sequence (P35228 whole entry, canonical isoform): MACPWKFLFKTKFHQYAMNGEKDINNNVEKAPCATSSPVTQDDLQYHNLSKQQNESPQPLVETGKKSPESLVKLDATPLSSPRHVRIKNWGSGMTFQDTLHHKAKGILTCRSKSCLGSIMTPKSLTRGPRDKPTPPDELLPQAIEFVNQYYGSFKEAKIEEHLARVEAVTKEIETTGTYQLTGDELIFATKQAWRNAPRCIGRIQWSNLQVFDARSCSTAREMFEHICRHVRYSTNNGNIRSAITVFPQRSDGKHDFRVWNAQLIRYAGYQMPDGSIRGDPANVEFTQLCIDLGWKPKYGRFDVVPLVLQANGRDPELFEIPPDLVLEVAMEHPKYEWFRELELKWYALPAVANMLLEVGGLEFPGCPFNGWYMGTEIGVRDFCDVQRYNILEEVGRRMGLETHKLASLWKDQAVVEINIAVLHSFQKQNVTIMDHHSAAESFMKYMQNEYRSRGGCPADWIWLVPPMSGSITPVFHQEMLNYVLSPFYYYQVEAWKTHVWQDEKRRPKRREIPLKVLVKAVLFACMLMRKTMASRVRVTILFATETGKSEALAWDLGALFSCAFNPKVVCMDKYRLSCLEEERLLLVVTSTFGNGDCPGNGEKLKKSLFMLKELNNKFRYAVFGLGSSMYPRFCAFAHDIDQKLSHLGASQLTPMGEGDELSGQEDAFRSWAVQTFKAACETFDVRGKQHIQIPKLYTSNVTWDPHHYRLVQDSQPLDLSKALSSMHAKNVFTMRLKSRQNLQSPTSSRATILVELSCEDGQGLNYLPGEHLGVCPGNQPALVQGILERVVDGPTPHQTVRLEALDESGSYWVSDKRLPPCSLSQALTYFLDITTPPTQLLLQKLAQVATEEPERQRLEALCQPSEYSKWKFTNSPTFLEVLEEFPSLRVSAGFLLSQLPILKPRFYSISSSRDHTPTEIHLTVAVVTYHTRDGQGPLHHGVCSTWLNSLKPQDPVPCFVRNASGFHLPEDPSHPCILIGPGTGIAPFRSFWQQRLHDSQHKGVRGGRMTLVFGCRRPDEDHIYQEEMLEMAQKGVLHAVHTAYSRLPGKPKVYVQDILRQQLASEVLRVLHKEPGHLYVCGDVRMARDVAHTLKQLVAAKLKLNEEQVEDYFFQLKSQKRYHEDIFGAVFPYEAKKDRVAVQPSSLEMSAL
Chain of Nitric oxide synthase 1 (P29475 whole entry, canonical isoform): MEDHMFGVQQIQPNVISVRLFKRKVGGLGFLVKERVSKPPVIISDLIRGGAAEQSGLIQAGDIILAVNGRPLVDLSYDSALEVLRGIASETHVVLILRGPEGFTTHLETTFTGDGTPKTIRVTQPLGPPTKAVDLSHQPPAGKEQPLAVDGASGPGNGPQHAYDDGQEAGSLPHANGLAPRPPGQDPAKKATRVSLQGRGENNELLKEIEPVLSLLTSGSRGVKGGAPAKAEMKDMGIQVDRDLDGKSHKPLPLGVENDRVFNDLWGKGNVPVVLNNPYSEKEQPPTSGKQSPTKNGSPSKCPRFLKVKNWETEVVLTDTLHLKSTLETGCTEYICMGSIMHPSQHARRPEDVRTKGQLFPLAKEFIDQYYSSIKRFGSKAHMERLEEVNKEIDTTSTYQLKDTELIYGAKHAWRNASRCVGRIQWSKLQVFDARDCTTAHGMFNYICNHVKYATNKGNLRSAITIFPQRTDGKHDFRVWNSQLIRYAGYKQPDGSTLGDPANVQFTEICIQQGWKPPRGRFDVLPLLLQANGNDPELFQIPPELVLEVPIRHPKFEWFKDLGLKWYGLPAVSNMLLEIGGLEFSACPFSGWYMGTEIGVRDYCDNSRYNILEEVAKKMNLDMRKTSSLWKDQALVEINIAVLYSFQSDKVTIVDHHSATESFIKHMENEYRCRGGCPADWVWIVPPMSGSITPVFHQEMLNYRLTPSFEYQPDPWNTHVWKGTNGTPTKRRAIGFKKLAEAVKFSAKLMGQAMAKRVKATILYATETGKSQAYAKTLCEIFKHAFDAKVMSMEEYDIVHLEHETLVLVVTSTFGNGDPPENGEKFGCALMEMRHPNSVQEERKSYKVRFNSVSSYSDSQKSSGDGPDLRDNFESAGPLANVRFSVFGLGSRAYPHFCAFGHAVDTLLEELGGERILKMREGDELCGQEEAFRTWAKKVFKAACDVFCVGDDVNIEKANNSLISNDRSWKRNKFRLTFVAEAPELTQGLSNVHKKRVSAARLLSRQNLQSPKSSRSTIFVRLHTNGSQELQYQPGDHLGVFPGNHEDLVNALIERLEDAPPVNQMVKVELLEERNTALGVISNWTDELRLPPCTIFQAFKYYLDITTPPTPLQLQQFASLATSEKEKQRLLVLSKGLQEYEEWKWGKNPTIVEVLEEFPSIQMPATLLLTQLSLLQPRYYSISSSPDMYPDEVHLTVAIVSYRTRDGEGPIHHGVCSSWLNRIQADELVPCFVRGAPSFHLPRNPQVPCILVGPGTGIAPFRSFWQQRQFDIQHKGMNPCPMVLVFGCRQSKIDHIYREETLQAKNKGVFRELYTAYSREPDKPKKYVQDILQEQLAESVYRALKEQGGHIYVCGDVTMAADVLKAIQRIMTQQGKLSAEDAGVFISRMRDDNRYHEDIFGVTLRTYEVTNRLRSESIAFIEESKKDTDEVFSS

Row | SMILES | IC50 (Nitric oxide synthase 1) [µM] | IC50 [1] [µM] | IC50 [2] [µM]
1 | CC(=N)NCCCC[C@H](N)C(=O)Nc1nnn[nH]1 | > 1850 | > 1850 | –
2 | CC(=N)NCCCC[C@H](N)C(=O)O | 35 | – | 5.9
